This assay deals with T1, 5-HT transporter (Rattus norvegicus, UniProt P31652).
T1 construct: from tissue; host or cells: rat brain (medulla and pons), synaptosomes, P2 fraction
The experiment in a line: 5-HT uptake inhibition, synaptosomes from rat brain (medulla and pons). It counts as biochemical. From the text:
b) Method for Determining Noradrenalin and 5-HT Uptake Inhibition:
Synaptosomes from rat brain regions are freshly isolated for in vitro studies, as described in the publication “The isolation of nerve endings from brain” by E. G. Gray and V. P. Whittaker, J. Anatomy 96, pages 79-88, 1962. The corresponding literature description is hereby introduced as a reference and is deemed to be part of the disclosure.
The tissue (hypothalamus for the determination of noradrenalin uptake inhibition and medulla and pons for the determination of 5-HT uptake inhibition) is homogenised in ice-cooled 0.32 M sucrose (100 mg of tissue/1 mL) in a glass homogeniser with Teflon pestle using five complete up and down strokes at 840 revolutions/minute.
The homogenate is centrifuged at 4° C. for 10 minutes at 1000 g. After subsequent centrifugation at 17000 g for 55 minutes, the synaptosomes (P2 fraction) are obtained, which are resuspended in 0.32 M […] (0.5 mL/100 mg of original weight).
The particular uptake is measured in a 96-well microtitre plate. The volume is 250 μL and the incubation proceeds at room temperature (approx. 20-25° C.) under an O2 atmosphere.
The incubation time is 7.5 minutes for [^3H]-NA and 5 minutes for [^3H]-5-HT. The 96 samples are then filtered through a Unifilter GF/B® microtitre plate (Packard) and washed with 200 mL of incubated buffer using a “Brabdel MPXRI-96T Cell-Harvester”. The Unifilter GF/B plate is dried for 1 hour at 55° C. The plate is then sealed with a Back Seal® (Packard) and 35 μL of scintillation fluid are added per well (Ultima Gold®, Packard). After sealing with a top Seal® (Packard) and establishing an equilibrium (around 5 hours), radioactivity is determined in a “Trilux 1450 Microbeta” (Wallac).
The quantity of protein used in the above determination corresponds to the values known from the literature, as for example described in “Protein measurement with the folin phenol reagent”, Lowry et al., J. Biol. Chem., 193, 265-275, 1951.
A detailed description of the method may additionally be found in the literature, for example in M. Ch. Frink, H.-H. Hennies, W. Engelberger, M. Haurand and B. Wilffert (1996) Arzneim.-Forsch./Drug Res. 46 (III), 11, 1029-1036.
The following characteristics were determined for the NA or 5-HT transporter: […]

T1 sequence (P31652 whole entry): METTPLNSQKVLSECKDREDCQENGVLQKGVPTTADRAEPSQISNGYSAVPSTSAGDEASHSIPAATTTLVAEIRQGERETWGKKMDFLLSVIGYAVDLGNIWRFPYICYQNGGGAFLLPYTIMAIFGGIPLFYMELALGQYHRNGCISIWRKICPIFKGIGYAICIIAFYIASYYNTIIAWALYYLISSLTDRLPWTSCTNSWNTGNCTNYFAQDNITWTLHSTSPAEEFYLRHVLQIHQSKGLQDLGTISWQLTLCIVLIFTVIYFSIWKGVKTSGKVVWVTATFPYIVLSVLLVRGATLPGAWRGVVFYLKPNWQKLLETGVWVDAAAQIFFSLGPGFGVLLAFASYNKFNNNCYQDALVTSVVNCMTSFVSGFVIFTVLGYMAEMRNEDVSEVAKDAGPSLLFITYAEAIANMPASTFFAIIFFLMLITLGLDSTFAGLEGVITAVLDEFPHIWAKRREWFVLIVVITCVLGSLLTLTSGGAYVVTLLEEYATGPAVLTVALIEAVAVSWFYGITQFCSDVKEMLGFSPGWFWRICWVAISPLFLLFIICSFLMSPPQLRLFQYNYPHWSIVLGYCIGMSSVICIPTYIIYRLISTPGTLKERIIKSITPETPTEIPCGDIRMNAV

For the molecule `CCOC(=O)C(C)NC(=O)c1noc2c1CN(S(=O)(=O)c1cccs1)CC2` (stereo not drawn) [Example 85, 2-{[5-(thiophene-2-sulfonyl)-4,5,6,7-tetrahydro-isoxazolo[4,5-c]pyridine-3-carbonyl]-amino}-propionic acid ethyl ester], 10 µM produced 67% inhibition.
Take `O=C(Nc1ccccc1)c1noc2c1CN(C(=O)Nc1ccc(OC(F)(F)F)cc1)CC2` [Example 3, 6,7-dihydro-4H-isoxazolo[4,5-c]pyridine-3,5-dicarboxylic acid 3-phenyl amide 5-[(4-trifluoromethoxy-phenyl) amide]]: the “5-HT uptake (rat), 10 μM, % inhibition” value was found to be 45%.
Take `O=C(NCc1ccc(Cl)cc1Cl)c1noc2c1CN(S(=O)(=O)c1cccc(C(F)(F)F)c1)CC2` [Example 69, 5-(3-trifluoromethyl-benzenesulfonyl)-4,5,6,7-tetrahydro-isoxazolo[4,5-c]pyridine-3-carboxylic acid 2,4-dichloro-benzyl amide]: at 10 µM the inhibition was 64%.
Still for that read-out and setting: next, `O=C(NCCN1CCOCC1)c1noc2c1CN(S(=O)(=O)c1cccs1)CC2` [Example 57, 5-(thiophene-2-sulfonyl)-4,5,6,7-tetrahydro-isoxazolo[4,5-c]pyridine-3-carboxylic acid (2-morpholin-4-yl-ethyl) amide]: 63%.
Still for that read-out and setting: the figure for `Cc1cc(C(=O)N2CCc3onc(C(=O)NCCN4CCCC4)c3C2)ccc1Br` [Example 102, 5-(4-bromo-3-methyl-benzoyl)-4,5,6,7-tetrahydro-isoxazolo[4,5-c]pyridine-3-carboxylic acid (2-pyrrolidin-1-yl-ethyl) amide] is 70%; for `CN(C)CCNC(=O)c1noc2c1CN(C(=O)c1cccc(OC(F)(F)F)c1)CC2` [Example 119, 5-(3-trifluoromethoxy-benzoyl)-4,5,6,7-tetrahydro-isoxazolo[4,5-c]pyridine-3-carboxylic acid (2-dimethylamino-ethyl) amide] it is 73%; for `CN(C)CCNC(=O)c1noc2c1CN(C(=O)COc1ccccc1)CC2` [Example 37, 5-(2-phenoxy-acetyl)-4,5,6,7-tetrahydro-isoxazolo[4,5-c]pyridine-3-carboxylic acid (2-dimethylamino-ethyl) amide] it is 61%.
With `O=C(NCCc1ccc(Cl)c(Cl)c1)c1noc2c1CN(S(=O)(=O)c1ccccc1)CC2` [Example 92, 5-benzenesulfonyl-4,5,6,7-tetrahydro-isoxazolo[4,5-c]pyridine-3-carboxylic acid [2-(3,4-dichloro-phenyl)-ethyl] amide], the inhibition – broadly, the share of the control response that was lost under treatment – at 10 µM came out at 61%.
Consider `Cc1ccc(NC(=O)N2CCc3onc(C(=O)NCc4cccs4)c3C2)cc1[N+](=O)[O-]` [Example 9, 6,7-dihydro-4H-isoxazolo[4,5-c]pyridine-3,5-dicarboxylic acid 5-[(4-methyl-3-nitro-phenyl) amide] 3-[(thiophen-2-ylmethyl) amide]], for which the “5-HT uptake (rat), 10 μM, % inhibition” value turned out to be 45%.
As for `O=C(NC1CCc2ccccc21)c1noc2c1CN(S(=O)(=O)c1ccccc1)CC2` (stereo not drawn) [Example 61, 5-benzenesulfonyl-4,5,6,7-tetrahydro-isoxazolo[4,5-c]pyridine-3-carboxylic acid indan-1-yl amide], the inhibition at 10 µM is 64%.
On the same count and under the same terms, the figure for `Cc1ccc(S(=O)(=O)N2CCc3onc(C(=O)NC4CCN(Cc5c(Cl)cccc5Cl)C4)c3C2)cc1` (stereo not drawn) [Example 91, 5-(toluene-4-sulfonyl)-4,5,6,7-tetrahydro-isoxazolo[4,5-c]pyridine-3-carboxylic acid [1-(2,6-dichloro-benzyl)-pyrrolidin-3-yl] amide] is 67%.
With `C#CCNC(=O)c1noc2c1CN(C(=O)Nc1ccc(C)c([N+](=O)[O-])c1)CC2` [Example 16, 6,7-dihydro-4H-isoxazolo[4,5-c]pyridine-3,5-dicarboxylic acid 5-[(4-methyl-3-nitro-phenyl) amide]3-prop-2-ynyl amide], the “5-HT uptake (rat), 10 μM, % inhibition” value is on record as 55%.
Turning to `O=C(NCc1ccc(F)cc1)c1noc2c1CN(C(=O)COc1ccccc1)CC2` [Example 54, 5-(2-phenoxy-acetyl)-4,5,6,7-tetrahydro-isoxazolo[4,5-c]pyridine-3-carboxylic acid 4-fluorobenzyl amide], the inhibition at 10 µM turned out to be 84%.
Still for that read-out and setting: next, `O=C(NCc1ccc(F)cc1F)c1noc2c1CN(S(=O)(=O)c1cc(Cl)ccc1Cl)CC2` [Example 112, 5-(2,5-dichloro-benzenesulfonyl)-4,5,6,7-tetrahydro-isoxazolo[4,5-c]pyridine-3-carboxylic acid 2,4-difluoro-benzyl amide]: 71%.
On to `COc1ccc(Cl)cc1NC(=O)N1CCc2onc(C(=O)NCCc3ccccc3)c2C1` [Example 22, 6,7-dihydro-4H-isoxazolo[4,5-c]pyridine-3,5-dicarboxylic acid 5-[(5-chloro-2-methoxyphenyl) amide] 3-(phenethyl amide)], for which the “5-HT uptake (rat), 10 μM, % inhibition” value is 60%.
As for `COc1ccc(C(=O)N2CCc3onc(C(=O)NCCN(C)C)c3C2)cc1` [Example 58, 5-(4-methoxy-benzoyl)-4,5,6,7-tetrahydro-isoxazolo[4,5-c]pyridine-3-carboxylic acid (2-dimethylamino-ethyl) amide], the inhibition at 10 µM is 81%.
Consider `CN(C)S(=O)(=O)N1CCc2onc(C(=O)NCc3ccc(C(F)(F)F)c(F)c3)c2C1` [Example 107, 5-dimethylsulfamoyl-4,5,6,7-tetrahydro-isoxazolo[4,5-c]pyridine-3-carboxylic acid 3-fluoro-4-trifluoromethyl-benzyl amide], for which the inhibition at 10 µM worked out at 61%.
With `CCCCC(CC)CNC(=O)c1noc2c1CN(S(=O)(=O)c1cccc(C(F)(F)F)c1)CC2` (stereo not drawn) [Example 73], the “5-HT uptake (rat), 10 μM, % inhibition” value was found to be 63%.
`O=C(NCc1cccc(Cl)c1Cl)c1noc2c1CN(S(=O)(=O)c1ccc(OC(F)(F)F)cc1)CC2` [Example 75, 5-(4-trifluoromethoxy-benzenesulfonyl)-4,5,6,7-tetrahydro-isoxazolo[4,5-c]pyridine-3-carboxylic acid 2,3-dichloro-benzyl amide] gave an inhibition at 10 µM of 65%.
`O=C(NCCN1CCCC1)c1noc2c1CN(C(=O)CC1CCCC1)CC2` [Example 71, 5-(2-cyclopentyl-acetyl)-4,5,6,7-tetrahydro-isoxazolo[4,5-c]pyridine-3-carboxylic acid (2-pyrrolidin-1-yl-ethyl) amide]: testing at 10 µM gave an inhibition of 69%.
For `O=C(c1noc2c1CN(S(=O)(=O)c1ccc(F)cc1)CC2)N1CCN(c2ncnc3sccc23)CC1` [Example 34], the “5-HT uptake (rat), 10 μM, % inhibition” value worked out at 74%.
`Cc1ccc(S(=O)(=O)N2CCc3onc(C(=O)N4CCN(CCC5CCCCC5)CC4)c3C2)cc1` [Example 82, [4-(2-cyclohexyl-ethyl)-piperazin-1-yl]-[5-(toluene-4-sulfonyl)-4,5,6,7-tetrahydro-isoxazolo[4,5-c]pyridin-3-yl]-methanone]: 10 µM produced 62% inhibition.
On the same count and under the same terms, the figure for `C=CCOc1ccc(CN(Cc2ccco2)C(=O)c2noc3c2CN(S(=O)(=O)c2cccc(C(F)(F)F)c2)CC3)cc1` [Example 87, 5-(3-trifluoromethyl-benzenesulfonyl)-4,5,6,7-tetrahydro-isoxazolo[4,5-c]pyridine-3-carboxylic acid (4-allyloxy-benzyl)-furan-2-ylmethyl amide] is 66%.
Take `Cc1ccc(NC(=O)N2CCc3onc(C(=O)NCc4ccc(F)cc4)c3C2)cc1[N+](=O)[O-]` [Example 14, 6,7-dihydro-4H-isoxazolo[4,5-c]pyridine-3,5-dicarboxylic acid 3-(4-fluorobenzyl amide) 5-[(4-methyl-3-nitro-phenyl) amide]]: the “5-HT uptake (rat), 10 μM, % inhibition” value was 53%.
For the molecule `C=CCCC(=O)N1CCc2onc(C(=O)NCC3CC3)c2C1` [Example 66, 5-Pent-4-enoyl-4,5,6,7-tetrahydro-isoxazolo[4,5-c]pyridine-3-carboxylic acid cyclopropylmethyl amide], the inhibition at 10 µM came to 62%.
Take `Cc1ccc(C(=O)N2CCc3onc(C(=O)NCCN4CCCC4)c3C2)cc1F` [Example 115, 5-(3-fluoro-4-methyl-benzoyl)-4,5,6,7-tetrahydro-isoxazolo[4,5-c]pyridine-3-carboxylic acid (2-pyrrolidin-1-yl-ethyl) amide]: the inhibition at 10 µM turned out to be 65%.
For `COc1ccc(S(=O)(=O)N2CCc3onc(C(=O)N4CCN(C(C)=O)CC4)c3C2)cc1` [Example 55, 1-{4-[5-(4-methoxy-benzenesulfonyl)-4,5,6,7-tetrahydro-isoxazolo[4,5-c]pyridine-3-carbonyl]-piperazin-1-yl}-ethanone], at 10 µM the inhibition was 68%.

The record behind these values is patent publication US8048879B2, “Substituted 4,5,6,7-tetrahydro-isoxazolo[4,5-c]pyridine compounds and use thereof for producing medicaments” (Gruenenthal GmbH, priority 2005, dated 2011).
